For experiment [1], the target named is T1, human calcitonin receptor (hCTR) (Homo sapiens, UniProt P30988).
T1 construct: host or cells: BHK (Baby Hamster Kidney), Hollex-1 cell line
T1 sequence (P30988 25-474): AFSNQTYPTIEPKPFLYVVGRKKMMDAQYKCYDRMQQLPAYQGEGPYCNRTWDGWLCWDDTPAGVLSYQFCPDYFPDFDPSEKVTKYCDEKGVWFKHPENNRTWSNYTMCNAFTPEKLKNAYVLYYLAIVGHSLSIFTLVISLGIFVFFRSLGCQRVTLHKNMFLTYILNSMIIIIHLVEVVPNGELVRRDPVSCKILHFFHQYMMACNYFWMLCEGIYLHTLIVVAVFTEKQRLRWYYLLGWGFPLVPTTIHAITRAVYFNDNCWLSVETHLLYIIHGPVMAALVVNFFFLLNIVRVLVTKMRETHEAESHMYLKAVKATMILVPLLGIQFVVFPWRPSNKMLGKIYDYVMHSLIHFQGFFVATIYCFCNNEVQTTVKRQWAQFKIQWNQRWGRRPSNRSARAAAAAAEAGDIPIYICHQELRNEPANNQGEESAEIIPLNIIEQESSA
Put plainly: Human calcitonin receptor (hCTR) in vitro potency assay, CRE-luciferase reporter in BHK cells. It is filed as cell-based. The note with it: BHK hCTR/CRE-Luc cells, 3 hours incubation, assay buffer with 1% ovalbumin; read-out: hCalcR potency, EC50. From the text:
Activation of hCTR leads to increased cellular concentrations of CAMP. Consequently, transcription is activated by promotors containing multiple copies of the CAMP response element (CRE). It is thus possible to measure hCTR activity using a CRE-luciferase reporter gene introduced into Baby Hamster Kidney (BHK) cells co-expressing the hCTR.
A BHK cell line was stably transfected with the human calcitonin receptor (a) and a CRE-responsive luciferase (CRE-Luc) reporter gene according to methods known to the person skilled in the art (Hollex-1 cell line, obtained from Zymogenetics described in U.S. Pat. No. 5,622,839).
(§1) Cells stocks were prepared by culturing of the stably transfected BHK hCTR/CRE-Luc cell line in growth medium consisting of DMEM (Gibco, 31966-021) supplemented with 10% FBS (Gibco, 16140-071), 1% Pen/Strep (Gibco, 15140-122), 0.5 mg/mL Geneticin (Gibco, 10131-027) and 250 nM Methotrexate (Sigma, A6770). Cells at approximately 80-90% confluence were washed once with PBS (Gibco 14190-094) and loosened from the cell flasks with Versene (Gibco, 15040-033) or TrypLE™ (Gibco, 12605-010). After centrifugation, the cell pellet was dissolved and diluted to approximately 2.5×10E6 cells/mL in Recovery™ Cell Culture Freezing Medium (Gibco, 12648-010). Cells were aliquoted and stored at −180° C. until use.
(§2) The assay buffer consisted of DMEM without phenol red (Gibco, 11880-028) supplemented with 1× GlutaMAX (Gibco, 35050-038), 10 mM HEPES (Gibco, 15630-056) and 1% (w/v) ovalbumin (Sigma, A5503).
(§3) To perform the assay, BHK hCTR/CRE-Luc cells were thawed, washed once in PBS and seeded in 40 μL growth medium in a white 384-well culture plate (PerkinElmer, 6007688) at a cell density of 4.000 cells/well on the day before the experiment. The plate was incubated over night at 37° C. in 5% CO2. On the day of the assay, cells were washed once in assay buffer. Serial dilutions (7-fold dilutions, 7 concentrations Pr. compound and one well containing only assay buffer) of comparator compounds and amylin analogues were performed in assay buffer often starting from approximately 10 nM in 96-well plates and 30 μL of each concentration added to the 384-well assay plate with cells. The assay plate was incubated for 3 hours at 37° C. in 5% CO2 after which 30 μL SteadyLite Plus (PerkinElmer, 6066759) was added to each well. The assay plate was sealed, incubated at room temperature with gentle shaking for 5 minutes followed by 30 minutes incubation without shaking while protected from light. Luminescence was detected on a luminescence plate reader e.g. a Synergy 2 (BioTek).

Experiment [2] deals with T2, human amylin receptor (hAMYR3) (Homo sapiens, UniProt O60896+P30988).
T2 construct: host or cells: BHK (Baby Hamster Kidney), Hollex-1 cell line further transfected with RAMP3
Put plainly: Human amylin receptor (hAMYR3) in vitro potency assay, CRE-luciferase reporter in BHK cells. It counts as cell-based. The note with it: BHK hAMYR3/CRE-Luc cells, 3 hours incubation, assay buffer with 1% ovalbumin.
Excerpt: Activation of hAMYR3 leads to increased cellular concentrations of cAMP. Consequently, transcription is activated by promotors containing multiple copies of the CAMP response element (CRE). It is thus possible to measure hAMYR3 activity using a CRE-luciferase reporter gene introduced into Baby Hamster Kidney (BHK) cells co-expressing the hAMYR3.
A BHK cell line was stably transfected with the human calcitonin receptor (a) and a CRE-responsive luciferase (CRE-Luc) reporter gene according to methods known to the person skilled in the art (Hollex-1 cell line, obtained from Zymogenetics described in U.S. Pat. No. 5,622,839). The cell line was further transfected with human receptor modifying protein 3 (RAMP3) using standard methods. This turns the human calcitonin receptor into a human amylin-3(a) receptor.
as §1, with “hAMYR3/CRE-Luc” for “hCTR/CRE-Luc”, “10131-027), 0.4 mg/mL Hygromycin (Invitrogen, 10687010)” for “10131-027)”
as §2
as §3, with “hAMYR3/CRE-Luc” for “hCTR/CRE-Luc”

The values below come from patent US12116388B2, “Amylin receptor agonists” (Novo Nordisk A/S, priority 2022, dated 2024).

Broadly, the pEC50 is the EC50 on a negative log10 scale, so that one unit is a factor of ten.

pEC50: −log10 of the molar value. Starred links: 1 amine or outer side, 2 acyl side, 3 side chain; linkers in the order of their positions; H or OH if unused. Residues, ends and D or L forms follow the SMILES beside them. Groups on a side chain read outwards from the residue. *: point of attachment. C18 diacid = O=C(O)CCCCCCCCCCCCCCCCC(=O)*; γGlu = O=C(O)[C@H](CCC(=O)[*:2])N[*:1]

T2 sequence (O60896 24-148, one chain of several): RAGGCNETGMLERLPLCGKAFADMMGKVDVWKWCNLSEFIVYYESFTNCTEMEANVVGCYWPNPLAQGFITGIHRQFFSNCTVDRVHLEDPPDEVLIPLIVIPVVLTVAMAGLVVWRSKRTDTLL

As for `CC[C@H](C)[C@H](NC(=O)[C@H](C)NC(=O)CNC(=O)[C@H](Cc1ccccc1)NC(=O)[C@@H]1CCCN1C(=O)[C@H](CC(=O)O)NC(=O)[C@H](CO)NC(=O)[C@H](CO)NC(=O)[C@H](Cc1c[nH]cn1)NC(=O)[C@H](Cc1c[nH]cn1)NC(=O)[C@H](CC(C)C)NC(=O)[C@H](Cc1ccccc1)NC(=O)[C@H](CCC(=O)O)NC(=O)[C@H](C)NC(=O)[C@H](CC(C)C)NC(=O)[C@H](CCCNC(=N)N)NC(=O)[C@H](CCC(N)=O)NC(=O)[C@@H](NC(=O)[C@H](CCC(N)=O)NC(=O)[C@H](C)NC(=O)[C@@H](NC(=O)[C@H](C)NC(=O)[C@H](CC(C)C)NC(=O)[C@H](CC(N)=O)NC(=O)[C@H](CO)NC(=O)[C@H](C)NC(=O)CC[C@H](NC(=O)CCCCCCCCCCCCCCCCC(=O)O)C(=O)O)[C@@H](C)O)[C@@H](C)O)C(=O)N1CCC[C@H]1C(=O)N[C@@H](CO)C(=O)N[C@@H](CO)C(=O)N[C@H](C(=O)N[C@@H](CC(=O)O)C(=O)N[C@H](C(=O)NCC(=O)N1CCC[C@H]1C(=O)N[C@@H](CC(=O)O)C(=O)N[C@H](C(=O)N1CCC[C@H]1C(N)=O)[C@@H](C)O)C(C)C)[C@@H](C)O` [Compound 12, N^1-[(4S)-4-carboxy-4-(17-carboxyheptadecanoylamino)butanoyl]-[Ala1,Ser2,Leu4,Ala7,Gln8,Glu14,His17,Asp21,Pro22,Pro27,Asp31,Pro34,Asp35,Pro37]-human amylin] ({C18 diacid-γGlu}-ASNLATAQTQRLAEFLHHSSDPFGAIPSSTDVGPDTP-NH2), the values for the pEC50 in experiment [1] and in experiment [2] were 11.70 and 11.73, respectively.

Take `CC[C@H](C)[C@H](NC(=O)[C@@H]1CCCN1C(=O)CNC(=O)[C@H](Cc1ccccc1)NC(=O)[C@H](CC(N)=O)NC(=O)[C@H](CC(=O)O)NC(=O)[C@H](CO)NC(=O)[C@H](CO)NC(=O)[C@H](Cc1c[nH]cn1)NC(=O)[C@H](Cc1c[nH]cn1)NC(=O)[C@H](CC(C)C)NC(=O)[C@H](Cc1ccccc1)NC(=O)[C@H](CCC(=O)O)NC(=O)[C@H](C)NC(=O)[C@H](CC(C)C)NC(=O)[C@H](CCCNC(=N)N)NC(=O)[C@H](C)NC(=O)[C@@H](NC(=O)[C@H](CCC(N)=O)NC(=O)[C@H](C)NC(=O)[C@@H](NC(=O)[C@H](CO)NC(=O)[C@H](CC(C)C)NC(=O)[C@H](CO)NC(=O)CNC(=O)[C@H](C)NC(=O)CC[C@H](NC(=O)CCCCCCCCCCCCCCCCC(=O)O)C(=O)O)[C@@H](C)O)[C@@H](C)O)C(=O)N[C@@H](CC(C)C)C(=O)N1CCC[C@H]1C(=O)N1CCC[C@H]1C(=O)N[C@H](C(=O)N[C@@H](CC(=O)O)C(=O)N[C@H](C(=O)NCC(=O)N[C@@H](CO)C(=O)N[C@@H](CC(N)=O)C(=O)N[C@H](C(=O)N1CCC[C@H]1C(N)=O)[C@@H](C)O)C(C)C)[C@@H](C)O` [Compound 13, N^1-[(4S)-4-carboxy-4-(17-carboxyheptadecanoylamino)butanoyl]-[Ala1,Gly2,Ser3,Leu4,Ser5,Ala7,Gln8,Ala10,Glu14,His17,Asp21,Pro25,Pro28,Pro29,Asp31,Pro37]-human amylin] ({C18 diacid-γGlu}-AGSLSTAQTARLAEFLHHSSDNFGPILPPTDVGSNTP-NH2): the pEC50 in experiment [1] is 11.80; in experiment [2] it was 11.87.

Turning to `CC[C@H](C)[C@H](NC(=O)[C@H](CCCCNC(=O)CC[C@H](NC(=O)CCCCCCCCCCCCCCCCC(=O)O)C(=O)O)NC(=O)CNC(=O)[C@H](Cc1ccccc1)NC(=O)[C@H](CC(N)=O)NC(=O)[C@H](CC(=O)O)NC(=O)[C@H](CO)NC(=O)[C@H](CO)NC(=O)[C@H](Cc1c[nH]cn1)NC(=O)[C@H](Cc1c[nH]cn1)NC(=O)[C@H](CC(C)C)NC(=O)[C@H](Cc1ccccc1)NC(=O)[C@H](CCC(=O)O)NC(=O)[C@H](C)NC(=O)[C@H](CC(C)C)NC(=O)[C@H](CCCNC(=N)N)NC(=O)[C@H](CCC(N)=O)NC(=O)[C@@H](NC(=O)[C@H](CCC(N)=O)NC(=O)[C@H](C)NC(=O)[C@@H](NC(=O)[C@H](CO)NC(=O)[C@H](CC(C)C)NC(=O)[C@H](CCC(N)=O)NC(=O)[C@H](CO)NC(=O)[C@H](C)NC(C)=O)[C@@H](C)O)[C@@H](C)O)C(=O)N[C@@H](CC(C)C)C(=O)N1CCC[C@H]1C(=O)N1CCC[C@H]1C(=O)N[C@H](C(=O)N[C@@H](CC(=O)O)C(=O)N[C@H](C(=O)NCC(=O)N[C@@H](CO)C(=O)N[C@@H](CC(N)=O)C(=O)N[C@H](C(=O)N1CCC[C@H]1C(N)=O)[C@@H](C)O)C(C)C)[C@@H](C)O` [Compound 18, N^1-acetyl,N{Epsilon-25}-[(4S)-4-carboxy-4-(17-carboxyheptadecanoylamino)butanoyl]-[Ala1,Ser2,Gln3,Leu4,Ser5,Ala7,Gln8,Glu14,His17,Asp21,Lys25,Pro28,Pro29,Asp31,Pro37]-human amylin] (Ac-ASQLSTAQTQRLAEFLHHSSDNFGK([γGlu-C18 diacid])ILPPTDVGSNTP-NH2), the pEC50 is 11.92 in experiment [1] and 11.86 in experiment [2].
